Measurements published in patent publication US7652027B2, “Phenanthroindolizidine alkaloids” (National Health Research Institutes, priority 2005, dated 2010).

Legend:
[1] = test system: HONE-1 (nasopharyngeal carcinoma); assay: Carcinoma cell growth inhibition (MTS assay), HONE-1; type: cell-based; details: 72 h
Protocol: (§1) Two cancer cell lines, HONE-1 (nasopharyngeal carcinoma) and NUGC-3 (gastric cancer), were maintained in DMEM medium containing 10% fetal bovine serum, seeded in 96-well plates (4500 and 6000 cells/well, respectively), and incubated under CO2 at 37° C. for 24 h. The cells were treated with at least five different concentrations of test compounds in a CO2 incubator for 72 h. The number of viable cells was estimated using the tetrazolium dye reduction assay (MTS assay) according to the protocol provided by the manufacturer (Promega, Madison, Wis., USA). The absorbance was measured at 490 nm on a Wallac 1420 VICTOR2 Multilabel counter (Perkin-Elmer, Boston, Mass.). The results of these assays were used to obtain the dose-response curves from which IC50 (nM) values were determined (an IC50 value represents the concentration (nM) of the test compound at which it produces a 50% cell growth inhibition after 3 days of incubation).

NUGC-3 (gastric cancer) = assay: Carcinoma cell growth inhibition (MTS assay), NUGC-3; type: cell-based; details: 72 h
Protocol: as §1

TNF α = TNF α protein ELISA in cell culture supernatants; type: cell-based
Protocol: RAW 264.7 cells were seeded (70,000 cells/well) and cultured in 96-well culture plate. After 24 h incubation, the medium was replaced with one containing LPS (5 ug/ml)/IFNγ (20 ng/ml) and each of Compounds 1-4 (final concentration: 3, 5, or 6 μM) was added at different concentrations. After 18-24 h, the supernatants were subjected to the measurement of nitric oxide production using the Nitrate/Nitrite assay kit (Cayman Chemical). Nitric oxide levels were measured as the accumulation of nitrite and nitrate in the incubation medium. Nitrate was reduced to nitrite with nitrate reductase and determined spectrophotometrically with the Griess reagent at OD405. The attached cells were subjected to cytotoxicity measurement using the MTS assay.
An ELISA kit (R & D Systems Inc., USA) was used to measure TNF α protein in cell culture supernatants using according to the manufacturer's instructions.

MEKK1 = biological target: T1, MEKK1 (Mus musculus, UniProt P53349); assay: MEKK1 inhibition inferred from reporter assays in MEKK1 over-expressing RAW264.7 cells; type: cell-based; details: suggested by the reporter results in MEKK1 over-expressing cells
T1 construct: host or cells: RAW264.7
T1 sequence (P53349 1201-1493 limits assumed): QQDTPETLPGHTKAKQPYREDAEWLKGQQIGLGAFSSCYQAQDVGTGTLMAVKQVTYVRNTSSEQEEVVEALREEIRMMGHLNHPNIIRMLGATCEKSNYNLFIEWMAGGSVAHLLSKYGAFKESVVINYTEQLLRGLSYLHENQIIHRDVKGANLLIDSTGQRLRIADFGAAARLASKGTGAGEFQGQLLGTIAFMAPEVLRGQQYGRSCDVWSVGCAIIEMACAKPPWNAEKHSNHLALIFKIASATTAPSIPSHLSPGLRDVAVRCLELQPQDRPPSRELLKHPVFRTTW
Protocol: (§2) In a similar manner, RAW264.7 cells were transfected with pNF-κB-Luc plasmids (100 ng/well) or pAP 1-Luc (100 ng/well) as well as pFC-MEKK (Stratagene Corp., Calif.) (50 ng/well) and/or pCMV-β-gal plasmids (100 ng/well) and the transfected cells were subjected to the luciferase and β-galactosidase assays.

iNOS promoter = assay: iNOS promoter-luciferase reporter assay in LPS/IFNγ-treated RAW 264.7 (or A549) cells; type: cell-based, murine or human; details: 10 μM compound; 5 μg/ml LPS, 20 ng/ml IFNγ; 18-20 h
Protocol: RAW 264.7 cells (or A549 cells) were seeded in 24-well plates (9×10^4 cells/well) and grown overnight in sodium pyruvate-free DMEM with 4 mM glutamine containing 1% non-essential amino acids (Biological Industries, Israel) with antibiotics and 10% heat-inactivated fetal bovine serum or 10% fetal calf serum (Biological Industries, Israel). The cells were then co-transfected with murine or human iNOS or murine COX-II promoter-luciferase reporter plasmids (100 ng/well) and pCMV-β-gal (100 ng/well) using FuGene6 (Roche, Germany) following the protocol provided by the manufacturer. Murine iNOS promoter luciferase plasmids, human iNOS promoter-luciferase reporter plasmids (pGL3-8296), and murine COX-II promoter-luciferase reporter plasmids were generously provided by Drs. Charles J. Lowenstein (John Hopkines University), Joel Moss (National Institute of Health), and Yu-Chih Liang (Taipei Medical University), respectively. […]
The luciferase and β-galactosidase assays were performed using a STEADY-GLO luciferase assay system (Promega) and Galacto-Star assay system (Tropix) according to the manufacturer's instructions. Luminescence was measured in a TOPCOUNT.NXT™ Microplate Scintillation and Luminescence Counter (Packard Inc.). […]

AP1 = assay: pAP 1-Luc luciferase reporter assay in LPS/IFNγ-treated RAW 264.7 (or A549) cells; type: cell-based; details: at the concentration higher than 1 μM; LPS (10 μg/ml)/IFNγ (20 ng/ml), 5 h
Protocol: (§3) The luciferase and β-galactosidase assays were performed using a STEADY-GLO luciferase assay system (Promega) and Galacto-Star assay system (Tropix) according to the manufacturer's instructions. Luminescence was measured in a TOPCOUNT.NXT™ Microplate Scintillation and Luminescence Counter (Packard Inc.). The results were normalized to β-galactosidase activity derived from co-transfected LacZ gene under the control of a constitutive promoter.
(§4) RAW 264.7 cells (or A549 cells) were seeded in 24-well plates (10^6 cells/well) 4-6 h before they were transfected with pNF-κB-Luc (Stratagene Corp., Calif.) (100 ng/well) and pCMV-β-gal (100 ng/well), or pAP 1-Luc (Stratagene Corp., Calif.) (200 ng/well) alone. The transfected cells were incubated for 24 h and then washed with the culture medium twice. After 18 h of incubation, the cells were treated with LPS (10 μg/ml)/IFNγ (20 ng/ml) and Compound 2 (final concentration: 0.3, 1, 3, or 10 μM) for 5 h. The cells were subjected to the luciferase and β-galactosidase assays.

COX-II = COX-II level by immunoblotting; type: cell-based; details: immunoblotting of cell lysates
Protocol: (§5) Levels of iNOS, COX-II, and β-actin (control) were measured by immunoblotting with anti-iNOS antibody (Biomol), anti-COX-II antibody (Upstate), and anti-β-actin antibody (Chemicon), respectively. The cell lysates were subjected to SDS-PAGE and the separated proteins were electrophoretically transferred to nitrocellulose membranes. The membranes were incubated, respectively, with blocking solution for 1 h, primary antibody for 2 h, and secondary antibody for 1 h. Antigen-antibody complexes were detected using ECL detection reagents (Perkin Elmer, Western Blot Chemiluminescence Reagent Plus) according to the manufacturer's instructions.

NF-κB [2] = assay: pNF-κB-Luc luciferase reporter assay in LPS/IFNγ-treated RAW 264.7 (or A549) cells; type: cell-based
Protocol: as §3, §4

Akt = assay: Phosphorylation of Akt in LPS/IFNγ-treated RAW264.7 cells; type: cell-based
NF-κB [3] = assay: pNF-κB-Luc reporter assay in RAW264.7 cells co-transfected with pFC-MEKK; type: cell-based; details: at the concentration of 3 μM or higher; cells treated with LPS/IFNγ
Protocol: as §4, §2

ATF-2 = assay: Phosphorylation of ATF-2 in LPS/IFNγ-treated RAW264.7 cells; type: cell-based
AP 1 = assay: pAP 1-Luc reporter assay in RAW264.7 cells co-transfected with pFC-MEKK; type: cell-based; details: at the concentration of 3 μM or higher; cells treated with LPS/IFNγ
Protocol: as §4, §2

iNOS = iNOS level by immunoblotting; type: cell-based; details: immunoblotting of cell lysates
Protocol: as §5

c-Jun = assay: Expression of c-Jun in LPS/IFNγ-treated RAW264.7 cells; type: cell-based

SMILES	inhibition of proliferation of HONE-1 cells [1]	inhibition of proliferation of NUGC-3 cells (NUGC-3 (gastric cancer))	inhibition of production of TNF α (TNF α)	inhibition of MEKK1 activity or expression (MEKK1)	inhibition of iNOS promoter activity (iNOS promoter)	inhibition of AP 1 activity (AP1)	COX-II level (COX-II)	inhibition of NF-κB activity, Compound 2 and another P13K/Akt inhibitor (NF-κB [2]; Compound 2 and LY294002 named together, LPS/IFNγ-treated RAW264.7 cells)	inhibition of NF-κB activity (NF-κB [2]; tested at 0.3, 1, 3, or 10 μM, LPS (10 μg/ml)/IFNγ (20 ng/ml), 5 h, serum-free medium)	phosphorylation of Akt (Akt)	inhibition of pNF-κB activity in cells with over-expression of MEKK1 (NF-κB [3])	phosphorylation of ATF-2 (ATF-2)	inhibition of AP 1 activity in cells with over-expression of MEKK1 (AP 1)	iNOS level (iNOS)	expression of c-Jun (c-Jun)
COc1cc2c3c[n+]4c(cc3c3cc(OC)c(OC)c(OC)c3c2cc1OC)CCC4 [Compound 1]	inhibited	inhibited	–	–	–	–	–	–	–	–	–	–	–	–	–
COc1cc2c3c(c4cc(OC)c(OC)cc4c2cc1OC)CN1CCC[C@H]1C3 [Compound 2]	inhibited	inhibited	inhibited	inhibited	effectively inhibited	inhibited	lowered	significantly inhibited	not	enhanced	inhibited	enhanced	inhibited	lowered	inhibited
COc1cc2c3c(c4cc(OC)c(OC)c(OC)c4c2cc1OC)[C@H](O)[C@@H]1CCC[N+]1([O-])C3 (some centres unmarked) [Compound 4]	inhibited	inhibited	–	–	effectively inhibited	–	–	–	–	–	–	–	–	–	–
